# Patent publication US20220347175A1, “PYRIDAZINONE DERIVATIVE” (Sumitomo Dainippon Pharma Co., Ltd., priority 2018, published 2022)
# How the values were obtained:
# human Nav1.1 = biological target: T1, human Nav1.1 (Homo sapiens, UniProt P35498); experiment: Amplification of Nav1.1-derived voltage-dependent sodium current (Nav1.1 current), cell line stably expressing human Nav1.1, automated patch clamp; assay type: cell-based
# T1 construct: host or cells: HEK293
# Outline: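 Amplification rate (%) is 100 × post-compound/pre-compound Nav1.1 peak current or AUC, minus 100. Ramp-evoked sodium currents were recorded by automated patch clamp in a human Nav1.1 HEK293 stable line, restricted to cells exceeding 500 pA, with compounds added in extracellular solution containing 1% DMSO.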
# human Nav1.5 = biological target: T2, human Nav1.5 (Homo sapiens, UniProt Q14524); experiment: Amplification of Nav1.5-derived voltage-dependent sodium current (Nav1.5 current), cell line stably expressing human Nav1.5, automated patch clamp; assay type: cell-based
# T2 construct: expressed in transfected cells; host or cells: CHO-K1 (T-REx System, ThermoFisher Scientific)
# T2 sequence (Q14524 1-2015 isoform Q14524-2): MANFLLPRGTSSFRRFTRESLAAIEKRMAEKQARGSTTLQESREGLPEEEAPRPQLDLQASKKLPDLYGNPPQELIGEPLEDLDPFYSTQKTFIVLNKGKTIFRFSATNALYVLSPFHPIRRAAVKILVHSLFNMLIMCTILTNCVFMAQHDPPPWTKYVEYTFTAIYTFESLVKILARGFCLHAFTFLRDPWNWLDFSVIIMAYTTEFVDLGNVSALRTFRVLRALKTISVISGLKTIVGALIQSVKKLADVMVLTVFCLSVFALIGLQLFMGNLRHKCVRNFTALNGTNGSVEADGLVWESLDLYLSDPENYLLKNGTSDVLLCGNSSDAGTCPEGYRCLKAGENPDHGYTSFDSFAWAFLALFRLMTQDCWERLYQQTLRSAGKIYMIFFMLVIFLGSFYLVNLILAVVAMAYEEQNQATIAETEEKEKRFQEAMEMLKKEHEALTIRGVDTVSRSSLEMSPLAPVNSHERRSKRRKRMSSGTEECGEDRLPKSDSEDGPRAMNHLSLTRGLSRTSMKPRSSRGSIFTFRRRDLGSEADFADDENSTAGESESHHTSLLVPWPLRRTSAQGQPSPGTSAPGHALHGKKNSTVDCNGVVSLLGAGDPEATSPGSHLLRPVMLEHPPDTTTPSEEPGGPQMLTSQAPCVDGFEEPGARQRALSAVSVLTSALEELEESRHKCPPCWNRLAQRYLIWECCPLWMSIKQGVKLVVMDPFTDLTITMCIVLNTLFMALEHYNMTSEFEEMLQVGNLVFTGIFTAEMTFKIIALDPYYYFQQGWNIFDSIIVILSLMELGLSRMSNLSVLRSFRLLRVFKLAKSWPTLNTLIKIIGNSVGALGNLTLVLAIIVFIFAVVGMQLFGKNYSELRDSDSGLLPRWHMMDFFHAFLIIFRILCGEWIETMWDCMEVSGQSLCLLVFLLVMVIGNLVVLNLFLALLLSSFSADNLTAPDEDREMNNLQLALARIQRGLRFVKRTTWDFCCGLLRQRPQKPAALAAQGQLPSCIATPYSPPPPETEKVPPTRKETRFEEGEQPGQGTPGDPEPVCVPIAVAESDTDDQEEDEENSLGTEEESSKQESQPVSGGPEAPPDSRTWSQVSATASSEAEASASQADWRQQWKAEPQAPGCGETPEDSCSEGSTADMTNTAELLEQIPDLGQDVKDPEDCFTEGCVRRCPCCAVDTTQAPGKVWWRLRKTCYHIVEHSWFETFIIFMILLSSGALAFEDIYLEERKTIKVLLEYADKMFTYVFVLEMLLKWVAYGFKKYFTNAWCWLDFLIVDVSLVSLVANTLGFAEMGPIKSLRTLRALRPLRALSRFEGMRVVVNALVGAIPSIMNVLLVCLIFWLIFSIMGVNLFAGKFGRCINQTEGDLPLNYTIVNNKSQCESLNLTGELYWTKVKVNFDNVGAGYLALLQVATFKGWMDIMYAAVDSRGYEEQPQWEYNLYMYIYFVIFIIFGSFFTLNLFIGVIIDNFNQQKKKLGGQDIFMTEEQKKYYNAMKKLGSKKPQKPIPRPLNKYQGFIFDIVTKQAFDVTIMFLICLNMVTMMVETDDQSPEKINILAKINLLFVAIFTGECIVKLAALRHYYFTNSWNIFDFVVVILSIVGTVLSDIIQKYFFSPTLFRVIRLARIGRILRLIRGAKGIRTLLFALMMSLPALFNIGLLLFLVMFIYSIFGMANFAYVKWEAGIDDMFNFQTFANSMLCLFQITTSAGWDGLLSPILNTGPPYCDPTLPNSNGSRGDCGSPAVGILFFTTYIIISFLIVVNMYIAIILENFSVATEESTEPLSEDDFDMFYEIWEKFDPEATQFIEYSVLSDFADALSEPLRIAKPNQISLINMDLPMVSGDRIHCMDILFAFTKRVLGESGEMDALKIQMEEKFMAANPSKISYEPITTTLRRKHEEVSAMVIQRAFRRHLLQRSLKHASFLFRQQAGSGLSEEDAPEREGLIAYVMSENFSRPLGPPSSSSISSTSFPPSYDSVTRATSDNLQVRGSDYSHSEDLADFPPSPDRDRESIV
# Procedure: Test 2: Evaluation of the Amplification in Nav1.5-Derived Voltage-Dependent Sodium Current (Nav1.5 Current) by Using a Cell Line Stably Expressing Human Nav1.5
# A CHO-K1 cell line (Chinese hamster ovary) stably expressing human Nav1.5 (Gene Bank Accession No: P000326.2) was obtained by using purchased T-Rex System (ThermoFisher Scientific, USA), and used for the present test. The effect of test compounds on the amplification of Nav1.5 current was evaluated by using a cell line stably expressing human Nav1.5 and HTS automated patch clamp system, similarly in the method using Nav1.1. In other words, test compounds were added in an extracellular fluid which contained 1% DMSO and 500 nmol/L Tetrodotoxin (TTX), and evaluated as a change of the peak value of Nav1.5 current and the area under the curve (AUC). The induction and the measurement of Nav1.5 current, the pharmacologic effect on Nav1.5 current, and a method for pharmacological evaluation were carried out by the same method as in Nav1.1.
# [1] = compound 3 μmol/L, HEK293 stably expressing human Nav1.1
# [2] = compound 3 μmol/L, CHO-K1 stably expressing human Nav1.5
# [3] = 10 μmol/L compound, change of the area under the curve of Nav1.1 current (Test Result 1)
# [4] = 10 μmol/L compound, change of the area under the curve of Nav1.5 current (Test Result 1)
# [5] = 10 μmol/L compound, change of the area under the curve of Nav1.1 current (Test Result 1), read-out: Nav1.1 current amplification rate (%)
# [6] = 10 μmol/L compound, change of the area under the curve of Nav1.5 current (Test Result 1), read-out: Nav1.5 current amplification rate (%)
# [7] = compound 1 μmol/L, HEK293 stably expressing human Nav1.1, read-out: Nav1.1 current amplification rate (%)
# [8] = compound 1 μmol/L, CHO-K1 stably expressing human Nav1.5, read-out: Nav1.5 current amplification rate (%)
# [9] = compound 1 μmol/L, HEK293 stably expressing human Nav1.1
# [10] = compound 1 μmol/L, CHO-K1 stably expressing human Nav1.5
smiles,measurement,setting,value
CC1CC=C(c2ccc(=O)n(CC(=O)Nc3ccn4cc(C5CC5)nc4c3)n2)CC1 (racemic) [Example 334],Nav1.1 current amplification rate (%),human Nav1.1; [1],255%
same,Nav1.5 current amplification rate (%),human Nav1.5; [2],25%
Cc1noc2cc(NC(=O)Cn3nc(C4=CCC(C)CC4)ccc3=O)ccc12 (racemic) [Example 240],Nav1.1 current amplification rate (%),human Nav1.1; [3],241%
same,Nav1.5 current amplification rate (%),human Nav1.5; [4],174%
CC1CCN(c2ccc(=O)n(CC(=O)Nc3ccn4ccnc4c3)n2)CC1 [Example 72],Nav1.1 current amplification rate (%),human Nav1.1; [3],119%
same,Nav1.5 current amplification rate (%),human Nav1.5; [4],3%
O=C(Cn1nc(C2=CCCCC2)ccc1=O)Nc1ccn2ccnc2c1 [Example 458],Nav1.1 current amplification rate (%),human Nav1.1; [3],24%
same,Nav1.5 current amplification rate (%),human Nav1.5; [4],0%
COc1cc(=O)n(CC(=O)Nc2ccc3ocnc3c2)nc1C1=CCC(C)(C)CC1 [Example 451],Nav1.1 current amplification rate (%),human Nav1.1; [3],365%
same,Nav1.5 current amplification rate (%),human Nav1.5; [4],30%
CC1CCN(c2ccc(=O)n(CC(=O)Nc3ccnc(N4CCOCC4)c3)n2)CC1 [Example 66],Nav1.1 current amplification rate (%),human Nav1.1; [3],49%
same,Nav1.5 current amplification rate (%),human Nav1.5; [4],31%
Cc1ncccc1N1CCN(C(=O)Cn2nc(C3=CCC(C)CC3)ccc2=O)CC1 (stereo not drawn) [Example 410],Nav1.1 current amplification rate (%),human Nav1.1; [1],66%
same,Nav1.5 current amplification rate (%),human Nav1.5; [2],10%
N#Cc1ccc(NC(=O)Cn2nc(N3CCC4(CCCC4)C3)ccc2=O)cn1 [Example 121],activation at 10 µM,human Nav1.1; [5],184%
same,activation at 10 µM,human Nav1.5; [6],98%
N#Cc1ccc(NC(=O)Cn2nc(N3CCCCCC3)ccc2=O)cn1 [Example 119],activation at 10 µM,human Nav1.1; [5],120%
same,activation at 10 µM,human Nav1.5; [6],25%
O=C(Cn1nc(N2CC3C(C2)C3(F)F)ccc1=O)Nc1ccc2ocnc2c1 (stereo not drawn) [Example 162],activation at 10 µM,human Nav1.1; [5],6%
same,activation at 10 µM,human Nav1.5; [6],0%
Cc1cc(N2CCC3(CCC3)C2)nn(CC(=O)Nc2ccc3ocnc3c2)c1=O [Example 204],activation at 10 µM,human Nav1.1; [5],189%
same,activation at 10 µM,human Nav1.5; [6],8%
O=C(Cn1nc(C2=CCCCC2)ccc1=O)N1CCc2c(-c3cnccn3)cccc21 [Example 521],activation at 1 µM,human Nav1.1; [7],358%
same,activation at 1 µM,human Nav1.5; [8],9%
"C[C@H]1CC=C(c2ccc(=O)n(CC(=O)Nc3ccc4ncnn4c3)n2)CC1 [Example 540, 2-{3-[(4R)-4-methylcyclohex-1-en-1-yl]-6-oxopyridazin-1(6H)-yl}-N-([1,2,4]triazolo[1,5-a]pyridin-6-yl)acetamide]",activation at 1 µM,human Nav1.1; [7],112%
same,activation at 1 µM,human Nav1.5; [8],15%
CC1CC=C(c2ccc(=O)n(CC(=O)N3CCc4c(C5CN(C(=O)CO)C5)cccc43)n2)CC1 (racemic) [Example 321],Nav1.1 current amplification rate (%),human Nav1.1; [1],478%
same,Nav1.5 current amplification rate (%),human Nav1.5; [2],330%
Cc1cc(=O)n(CC(=O)Nc2ccn3ccnc3c2)nc1C1=CCC(C)(C)CC1 [Example 461],Nav1.1 current amplification rate (%),human Nav1.1; [3],337%
same,Nav1.5 current amplification rate (%),human Nav1.5; [4],50%
Cc1cncc(N2CCN(C(=O)Cn3nc(C4=CCC(C)(C)CC4)ccc3=O)CC2)c1 [Example 442],Nav1.1 current amplification rate (%),human Nav1.1; [3],414%
same,Nav1.5 current amplification rate (%),human Nav1.5; [4],27%
COc1ccc(N2CCN(C(=O)Cn3nc(C4=CCC(C)CC4)ccc3=O)CC2)cn1 (stereo not drawn) [Example 407],Nav1.1 current amplification rate (%),human Nav1.1; [1],113%
same,Nav1.5 current amplification rate (%),human Nav1.5; [2],6%
CC1CC=C(c2ccc(=O)n(CC(=O)N3CCC(c4ccccn4)CC3)n2)CC1 (racemic) [Example 260],Nav1.1 current amplification rate (%),human Nav1.1; [3],13%
same,Nav1.5 current amplification rate (%),human Nav1.5; [4],−6%
CC1CC=C(c2ccc(=O)n(CC(=O)N3CCc4c3ccnc4Cl)n2)CC1 (racemic) [Example 247],Nav1.1 current amplification rate (%),human Nav1.1; [3],53%
same,Nav1.5 current amplification rate (%),human Nav1.5; [4],43%
O=C(Cn1nc(N2CCC3(CCC3)C2)ccc1=O)N1CCN(c2ccccc2)CC1 [Example 188],activation at 10 µM,human Nav1.1; [5],30%
same,activation at 10 µM,human Nav1.5; [6],-2%
CC1CC=C(c2ccc(=O)n(CC(=O)Nc3ccc4cnnn4c3)n2)CC1 (racemic) [Example 345],Nav1.1 current amplification rate (%),human Nav1.1; [9],232%
same,Nav1.5 current amplification rate (%),human Nav1.5; [10],46%
CC1CC=C(c2ccc(=O)n(CC(=O)Nc3ccc4ncncc4c3)n2)CC1 (racemic) [Example 355],Nav1.1 current amplification rate (%),human Nav1.1; [9],130%
same,Nav1.5 current amplification rate (%),human Nav1.5; [10],28%
COc1ncc(C2=CCN(C(=O)Cn3nc(C4=CCC(C)CC4)ccc3=O)CC2)cn1 (racemic) [Example 400],Nav1.1 current amplification rate (%),human Nav1.1; [3],238%
same,Nav1.5 current amplification rate (%),human Nav1.5; [4],24%
CC1(C)CC=C(c2ccc(=O)n(CC(=O)N3CCc4c(OC5COC5)cccc43)n2)CC1 [Example 436],Nav1.1 current amplification rate (%),human Nav1.1; [3],226%
same,Nav1.5 current amplification rate (%),human Nav1.5; [4],31%
COc1cc(C2=CCC(C(F)(F)F)CC2)nn(CC(=O)N2CCc3c(N4CCOCC4)cccc32)c1=O (racemic) [Example 474],Nav1.1 current amplification rate (%),human Nav1.1; [3],235%
same,Nav1.5 current amplification rate (%),human Nav1.5; [4],26%
O=C(Cn1nc(N2CCC3(CCCC3)C2)ccc1=O)Nc1ccc2scnc2c1 [Example 128],activation at 10 µM,human Nav1.1; [5],240%
same,activation at 10 µM,human Nav1.5; [6],56%
CC1(C)CC=C(c2ccc(=O)n(CC(=O)N3CCN(c4cncc(F)c4)CC3)n2)C1 [Example 483],Nav1.1 current amplification rate (%),human Nav1.1; [3],175%
same,Nav1.5 current amplification rate (%),human Nav1.5; [4],7%
CC1CC=C(c2ccc(=O)n(CC(=O)Nc3ccc(C#N)nc3)n2)CC1 (racemic) [Example 360],Nav1.1 current amplification rate (%),human Nav1.1; [9],200%
same,Nav1.5 current amplification rate (%),human Nav1.5; [10],100%
Cc1cc(C2=CCC(C)(C)CC2)nn(CC(=O)Nc2ccn3ccnc3c2)c1=O [Example 460],Nav1.1 current amplification rate (%),human Nav1.1; [3],221%
same,Nav1.5 current amplification rate (%),human Nav1.5; [4],46%
O=C(Cn1nc(N2CCC3(CCC3)C2)ccc1=O)N1CCc2cc(N3CCOCC3)ccc21 [Example 184],activation at 10 µM,human Nav1.1; [5],35%
same,activation at 10 µM,human Nav1.5; [6],16%
COc1cc(C2=CCC(C(F)(F)F)CC2)nn(CC(=O)Nc2ccn3ccnc3c2)c1=O (stereo not drawn) [Example 462],Nav1.1 current amplification rate (%),human Nav1.1; [3],124%
same,Nav1.5 current amplification rate (%),human Nav1.5; [4],5%
CC(=O)N1CC(c2cccc3c2CCN3C(=O)Cn2nc(-c3ccc(C)cc3)ccc2=O)C1 [Example 520],activation at 1 µM,human Nav1.1; [7],253%
same,activation at 1 µM,human Nav1.5; [8],252%
CC1CC=C(c2ccc(=O)n(CC(=O)N3CCN(c4cncc(OC(F)F)c4)CC3)n2)CC1 (stereo not drawn) [Example 405],Nav1.1 current amplification rate (%),human Nav1.1; [1],268%
same,Nav1.5 current amplification rate (%),human Nav1.5; [2],14%
O=C(Cn1nc(N2CCC3(CCC3)C2)ccc1=O)Nc1ccn2ccnc2c1 [Example 177],activation at 10 µM,human Nav1.1; [5],169%
same,activation at 10 µM,human Nav1.5; [6],16%
Cc1cnc2cc(NC(=O)Cn3nc(N4CCC(C)CC4)ccc3=O)ccn12 [Example 232],activation at 10 µM,human Nav1.1; [5],37%
same,activation at 10 µM,human Nav1.5; [6],8%
CC1(C)CC=C(c2ccc(=O)n(CC(=O)N3CCc4c(C5CN(C(=O)CO)C5)cccc43)n2)CC1 [Example 437],Nav1.1 current amplification rate (%),human Nav1.1; [1],582%
same,Nav1.5 current amplification rate (%),human Nav1.5; [2],194%
Cc1c(N2CCC3(CCC3)C2)nn(CC(=O)Nc2ccn3ccnc3c2)c(=O)c1C [Example 209],activation at 10 µM,human Nav1.1; [5],179%
same,activation at 10 µM,human Nav1.5; [6],16%
CC1CC=C(c2ccc(=O)n(CC(=O)N3CCc4c(C5CN(C(=O)C(C)(C)O)C5)cccc43)n2)CC1 (racemic) [Example 306],Nav1.1 current amplification rate (%),human Nav1.1; [1],532%
same,Nav1.5 current amplification rate (%),human Nav1.5; [2],327%
"CC1(C)CC=C(c2ccc(=O)n(CC(=O)Nc3ccc4ncnn4c3)n2)CC1 [Example 428, 2-[3-(4,4-dimethylcyclohex-1-en-1-yl)-6-oxopyridazin-1(6H)-yl]-N-([1,2,4]triazolo[1,5-a]pyridin-6-yl)acetamide]",activation at 1 µM,human Nav1.1; [7],109%
same,activation at 1 µM,human Nav1.5; [8],23%
CC1CC=C(c2ccc(=O)n(CC(=O)Nc3ccc4oc(CN(C)C)nc4c3)n2)CC1 (racemic) [Example 324],Nav1.1 current amplification rate (%),human Nav1.1; [1],50%
same,Nav1.5 current amplification rate (%),human Nav1.5; [2],5%
COc1cnc(C)c(N2CCN(C(=O)Cn3nc(C4=CCC(C)CC4)ccc3=O)CC2)c1 (stereo not drawn) [Example 418],Nav1.1 current amplification rate (%),human Nav1.1; [1],105%
same,Nav1.5 current amplification rate (%),human Nav1.5; [2],7%
COc1nc2cc(NC(=O)Cn3nc(C4=CCC(C)(C)CC4)c(OC)cc3=O)cc(F)c2o1 [Example 494],activation at 3 µM,"human Nav1.1; compound 3 μmol/L, HEK293 stably expressing human Nav1.1, read-out: Nav1.1 current amplification rate (%)",255%
same,activation at 3 µM,"human Nav1.5; compound 3 μmol/L, CHO-K1 stably expressing human Nav1.5, read-out: Nav1.5 current amplification rate (%)",26%
Cc1c(N2CCC3(CCCC3)C2)nn(CC(=O)Nc2ccc3ocnc3c2)c(=O)c1C [Example 165],activation at 10 µM,human Nav1.1; [5],146%
same,activation at 10 µM,human Nav1.5; [6],11%
CC1CC=C(c2ccc(=O)n(CC(=O)N3CCc4c(C5CNC5)cccc43)n2)CC1 (racemic) [Example 299],Nav1.1 current amplification rate (%),human Nav1.1; [1],6%
same,Nav1.5 current amplification rate (%),human Nav1.5; [2],10%
Cc1cc(=O)n(CC(=O)Nc2ccn3ncnc3c2)nc1C1=CCC(C)(C)CC1 [Example 503],activation at 1 µM,human Nav1.1; [7],58%
same,activation at 1 µM,human Nav1.5; [8],10%
